Patent US20150018403A1, “FLUORENE-AMIDE COMPOUNDS AND PHARMACEUTICAL USE THEREOF” (JAPAN TOBACCO INC., priority 2013, published 2015)

Target: T1, human PDHK1 (hPDHK1) (Homo sapiens, UniProt Q15118)
T1 construct: made in house; host or cells: Escherichia coli BL21(DE3), pET17b vector
Test: Inhibitory action of PDHK1 activity in vitro (residual PDH activity after kinase reaction)
Assay type: biochemical
Conditions: PDH/hPDHK1 complex, 45 min kinase reaction at room temperature
Procedure: The inhibitory action of PDHK activity was assessed indirectly by measuring the residual PDH activity after kinase reaction in the presence of a test compound.
In the case of human PDHK1 (hPDHK1, Genbank Accession No. L42450.1), a 1.3 kbp fragment encoding this protein was isolated from human liver cDNA by polymerase chain reaction (PCR). Modified hPDHK1 cDNA wherein FLAG-Tag sequence was added to the N terminus was prepared by PCR and cloned into a vector (pET17b-Novagen). The recombinant construct was transformed into Escherichia coli (DH5α-TOYOBO). The recombinant clones were identified, and plasmid DNA was isolated and subjected to the DNA sequence analysis. One clone which had the expected nucleic acid sequence was selected for expression work. […]
Then, 10 μL of substrates (5 mmol/L sodium pyruvate, 5 mmol/L Coenzyme A, 12 mmol/L NAD, 5 mmol/L thiamin pyrophosphate, diluted with buffer) were added. The mixture was incubated at room temperature for 90 min, and the residual PDH activity was measured.
2.5 The absorbance at 340 nm before and after PDH reaction was measured using a microplate reader to detect NADH produced by the PDH reaction. The hPDHK1 inhibition rate (%) of the test compound was calculated from the formula [{(PDH activity of the test compound−PDH activity of control)/PDH activity of blank−PDH activity of control)}×100].

T1 sequence (Q15118 29-436): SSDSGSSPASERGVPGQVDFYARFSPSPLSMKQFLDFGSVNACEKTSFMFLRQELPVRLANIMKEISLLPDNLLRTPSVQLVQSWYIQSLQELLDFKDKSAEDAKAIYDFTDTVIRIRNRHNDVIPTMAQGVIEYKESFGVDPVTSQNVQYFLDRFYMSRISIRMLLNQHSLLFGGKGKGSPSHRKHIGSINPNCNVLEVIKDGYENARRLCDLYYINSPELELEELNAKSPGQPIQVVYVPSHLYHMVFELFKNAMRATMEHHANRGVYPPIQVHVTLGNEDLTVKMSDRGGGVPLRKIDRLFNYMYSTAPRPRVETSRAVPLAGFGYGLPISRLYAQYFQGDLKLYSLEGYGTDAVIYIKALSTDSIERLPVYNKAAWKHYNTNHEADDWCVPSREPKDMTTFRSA

IC50: 5.1 nM
SMILES: C[C@H](O)COc1cc(-c2cnn(C(C)(C)C(N)=O)c2)c2c(c1)[C@@](O)(C(F)(F)F)c1ccccc1-2 [compound (2), 2-(4-{(9R)-9-hydroxy-2-[(2S)-2-hydroxypropoxy]-9-(trifluoromethyl)-9H-fluoren-4-yl}-1H-pyrazol-1-yl)-2-methylpropanamide]
